Results from PubChem BioAssay AID2060345 (Molecular Pharmacology Branch, DTP, NCI, 2025).

Test system: MALME-3M multicell spheroids, viability
Assay: Anticancer human tumor MALME-3M cell line growth inhibition [TAK];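 also: spheroids exposed to drugs for seven days before readout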;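 as to viability, T/C: 100% = DMSO vehicle control viability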
Conditions: for IC50: curve of first compound; for viability, T/C: stronger effect = lower value
Outline: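 Tumor cells were grown as spheroids with HUVEC and hMSC (60:25:15) and treated with targeted agents combined with TAK-243 or ipatasertib. Drugs were tested in half-log steps down from near the clinical Cmax, or from 10 microM where Cmax was unknown.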

[1] = second compound 0.3 µM, first compound 0.0316 µM
[2] = second compound 0.3 µM, first compound 0.1 µM
[3] = second compound 0.3 µM, first compound 0.316 µM
[4] = second compound 0.3 µM, first compound 1 µM
[5] = second compound 0.949 µM, first compound 0.0316 µM
[6] = second compound 0.949 µM, first compound 0.1 µM
[7] = second compound 0.949 µM, first compound 0.316 µM
[8] = second compound 0.949 µM, first compound 1 µM
[9] = second compound 3 µM, first compound 0.0316 µM
[10] = second compound 3 µM, first compound 0.1 µM
[11] = second compound 3 µM, first compound 0.316 µM
[12] = second compound 3 µM, first compound 1 µM
[13] = second compound 9.49 µM, first compound 0.0316 µM
[14] = second compound 9.49 µM, first compound 0.1 µM
[15] = second compound 9.49 µM, first compound 0.316 µM
[16] = second compound 9.49 µM, first compound 1 µM
[17] = second compound 30 µM, first compound 0.0316 µM
[18] = second compound 30 µM, first compound 0.1 µM
[19] = second compound 30 µM, first compound 0.316 µM
[20] = second compound 30 µM, first compound 1 µM

Row | Structure (SMILES) | IC50 (second compound 0.3 µM) [µM] | IC50 (second compound 0.949 µM) [µM] | IC50 (second compound 3 µM) [µM] | IC50 (second compound 9.49 µM) [µM] | IC50 (second compound 30 µM) [µM] | viability, T/C [1] [%] | viability, T/C [2] [%] | viability, T/C [3] [%] | viability, T/C [4] [%] | viability, T/C [5] [%] | viability, T/C [6] [%] | viability, T/C [7] [%] | viability, T/C [8] [%] | viability, T/C [9] [%] | viability, T/C [10] [%] | viability, T/C [11] [%] | viability, T/C [12] [%] | viability, T/C [13] [%] | viability, T/C [14] [%] | viability, T/C [15] [%] | other results
1 | COc1c(OCCCN2CCOCC2)ccc2c3n(c(=NC(=O)c4cnc(N)nc4)nc12)CCN3 + CC(C)NCC(C(=O)N1CCN(c2ncnc3c2C(C)CC3O)CC1)c1ccc(Cl)cc1 | 0.125 | 0.109 | 0.0662 | 0.0414 | 0.0059 | 76.3 | 62.2 | 23.1 | 12.3 | 76.2 | 55.3 | 22.3 | 11.7 | 63.1 | 43.6 | 16.7 | 10.6 | 54.2 | 31.3 | 15.3 | viability, T/C (second compound 0.3 µM, first compound 0.00316 µM): 109%; viability, T/C (second compound 0.3 µM, first compound 0.01 µM): 96.3%; viability, T/C (second compound 0.949 µM, first compound 0.00316 µM): 98.4%; viability, T/C (second compound 0.949 µM, first compound 0.01 µM): 95%; viability, T/C (second compound 3 µM, first compound 0.00316 µM): 82.3%; viability, T/C (second compound 3 µM, first compound 0.01 µM): 81.8%; viability, T/C (second compound 9.49 µM, first compound 0.00316 µM): 69.8%; viability, T/C (second compound 9.49 µM, first compound 0.01 µM): 72.8%; viability, T/C [16]: 11.8%; viability, T/C (second compound 30 µM, first compound 0.00316 µM): 45.8%; viability, T/C (second compound 30 µM, first compound 0.01 µM): 56.7%; viability, T/C [17]: 39.3%; viability, T/C [18]: 26.5%; viability, T/C [19]: 10.6%; viability, T/C [20]: 6.33%
2 | Cc1nc(NC(=O)N2CCCC2C(N)=O)sc1-c1ccnc(C(C)(C)C(F)(F)F)c1 (stereo not given) + CC(C)NCC(C(=O)N1CCN(c2ncnc3c2C(C)CC3O)CC1)c1ccc(Cl)cc1 | > 10 | > 10 | > 10 | 4.31 | 0.355 | 110 | 104 | 97.7 | 88.1 | 107 | 103 | 86.3 | 90.7 | 94.3 | 88.6 | 79.3 | 75.2 | 79.4 | 73 | 67.1 | viability, T/C (second compound 0.3 µM, first compound 3.16 µM): 72.5%; viability, T/C (second compound 0.3 µM, first compound 10 µM): 59.1%; viability, T/C (second compound 0.949 µM, first compound 3.16 µM): 75.5%; viability, T/C (second compound 0.949 µM, first compound 10 µM): 55.4%; viability, T/C (second compound 3 µM, first compound 3.16 µM): 73.8%; viability, T/C (second compound 3 µM, first compound 10 µM): 53%; viability, T/C [16]: 67.5%; viability, T/C (second compound 9.49 µM, first compound 3.16 µM): 54.8%; viability, T/C (second compound 9.49 µM, first compound 10 µM): 37.4%; viability, T/C [17]: 56.3%; viability, T/C [18]: 59.1%; viability, T/C [19]: 47.1%; viability, T/C [20]: 42%; viability, T/C (second compound 30 µM, first compound 3.16 µM): 40%; viability, T/C (second compound 30 µM, first compound 10 µM): 22%
